Results reported in US11464779B2, “Pharmaceutical formulation of palbociclib and a preparation method thereof” (Shenzhen Pharmacin Co., Ltd., priority 2016, dated 2022).

Experiments:
[1] = according to WO2005/005426; cited from earlier work
[2] = dynamic solubility test in buffer at pH 6.0 with stirring; format: physicochemical; conditions: phosphate buffer pH 6.0, stirring for 60 minutes
Method: 62.5 mg of the solid dispersion prepared in Example 3 (containing 12.5 mg of the API of palbociclib in proportion) and 12.5 mg of the API of palbociclib were weighed separately, placed into two 100 ml beakers, respectively, and marked with T1 and T2. 90 ml of phosphate buffer (pH 6.0) was added to the two beakers respectively and a magnetic stir bar was placed therein. The two beakers were placed on a magnetic stirrer separately. 1 ml of the solution was removed separately from each of the beakers at the time points of 5, 10, 20, 40, and 60 minutes and filtered through a 0.45 μm micro PES polyethersulfone filter membrane. The filtrate was analyzed by high performance liquid chromatography, the content of the API of palbociclib was determined and the dissolution percentage was calculated.

[3] = co-dissolution of API of palbociclib and acidic auxiliary material in a solvent; format: physicochemical; conditions: co-dissolved with pharmaceutically acceptable acidic auxiliary material; solvent e.g. water
Source text: The present invention also provides a method for the preparation of a solid dispersion, comprising: mixing palbociclib with an acidic auxiliary material; adding a solvent (including but not limited to water, ethanol, acetone and a mixture thereof, preferably water or a mixture thereof with other solvents, e.g. the mixture of water and ethanol, the mixture of water and acetone, etc.) for dissolving or dispersing; adding a hydrophilic high-molecular material, dissolving or dispersing evenly; and removing the solvent by heating, for example, evaporating the solvent to dry by vacuum drying or heating drying or freeze drying or other drying ways, in order to achieve the purpose of dispersing the drug in the high-molecular solid carrier to a high degree, so as to prepare the solid dispersion.
In the preparation of the solid dispersion of the present invention, the concentration of the API of palbociclib in the solvent (e.g., water) can be up to 50 mg/ml or more, thereby improving the preparation efficiency of the solid dispersion.

- dynamic solubility (dissolution percentage) [2]: 58%
- concentration of the API of palbociclib in the solvent [3]: ≥ 50000 µg/mL
SMILES: CC(=O)c1c(C)c2cnc(Nc3ccc(N4CCNCC4)cn3)nc2n(C2CCCC2)c1=O [API of palbociclib, palbociclib]
- solubility in water [1]: poor
